Data taken from ChEMBL document CHEMBL1152934, “Quinazolindione derivatives as potent 5-HT3A receptor antagonists” (Bioorg Med Chem, 2009).

Biological target: 5-hydroxytryptamine receptor 3A (Mus musculus) (UniProt P23979)
Test: Antagonist activity at 5HT3A receptor expressed in Xenopus oocyte

Chain of 5-hydroxytryptamine receptor 3A (Mus musculus) (P23979 whole entry, looked up): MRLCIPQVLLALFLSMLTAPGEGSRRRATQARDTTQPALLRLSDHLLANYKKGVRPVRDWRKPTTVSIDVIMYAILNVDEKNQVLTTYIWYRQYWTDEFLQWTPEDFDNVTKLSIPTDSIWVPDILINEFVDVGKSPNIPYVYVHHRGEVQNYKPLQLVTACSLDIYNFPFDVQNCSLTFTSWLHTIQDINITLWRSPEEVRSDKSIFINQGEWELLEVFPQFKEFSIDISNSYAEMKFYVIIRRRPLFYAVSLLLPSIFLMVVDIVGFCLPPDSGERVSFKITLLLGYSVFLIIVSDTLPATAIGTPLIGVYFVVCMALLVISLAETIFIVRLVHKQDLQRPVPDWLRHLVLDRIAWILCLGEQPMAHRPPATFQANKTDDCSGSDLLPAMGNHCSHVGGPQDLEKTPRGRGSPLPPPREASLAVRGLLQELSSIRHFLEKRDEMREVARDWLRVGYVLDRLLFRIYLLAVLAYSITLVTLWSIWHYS

| Structure (SMILES) | IC50 |
| --- | --- |
| CC1CCCCN1CCCNC(=O)c1ccc2c(=O)n(Cc3ccc(Cl)cc3)c(=O)[nH]c2c1 (configuration not stated) | 11.6 µM |
| O=C(NCCN1CCOCC1)c1ccc2c(=O)n(Cc3ccc(F)cc3)c(=O)[nH]c2c1 | 19.8 µM |
| CCC1CCCCN1CCNC(=O)c1ccc2c(=O)n(Cc3ccc(Cl)cc3)c(=O)[nH]c2c1 (configuration not stated) | 13.6 µM |
| O=C(NCCN1CCOCC1)c1ccc2c(=O)n(Cc3ccc(Cl)cc3)c(=O)[nH]c2c1 | 15.8 µM |
| O=C(NCCN1CCCCC1)c1ccc2c(=O)n(Cc3ccccc3Cl)c(=O)[nH]c2c1 | 2.1 µM |
| CC1CCCCN1CCCNC(=O)c1ccc2c(=O)n(C3CCCCC3)c(=O)[nH]c2c1 (configuration not stated) | 5.9 µM |
| O=C(NCCN1CCOCC1)c1ccc2c(=O)n(-c3ccc(F)cc3)c(=O)[nH]c2c1 | 57 µM |
